Publication PMC9732253, “Inhibition of the Phosphatidylinositol-3 Kinase Pathway Using Bimiralisib in Loss-of-Function NOTCH1-Mutant Head and Neck Cancer” (The Oncologist, 2022)
Where two headings read alike, the source gives them in different places.

Experiments:
[1] = system: pathway targets in tumor tissue; set-up: method as in PMID 29660598; settings: therapeutic doses; cited from earlier work
PI3Kα = settings: cited from earlier work
other protein kinases = system: other protein kinases; set-up: method as in PMID 28829592; settings: biochemical assays; cited from earlier work
NOTCH1-mutant HNSCC = settings: one heavily pretreated patient with NOTCH1-mutant HNSCC, thoracic metastases; cited from earlier work
[2] = Phase II trial, PK analysis: pre-dose and 1 h post-dose blood levels by HPLC; assay type: in vivo, human; settings: for Cmax: human, serum, 140 mg; for Trough: pre-dose
Protocol: Blood was collected before oral dose administration and 1 hour after oral dose administration on days 1, 8, 22, 43, and 64 after the start of therapy. Bimiralisib levels were determined as previously described using high-performance liquid chromatography[8-11] by Charles River Laboratories (Ashland, Ohio). The pre-dose levels were the trough levels and post-dose levels were the assumed peak serum concentration (Cmax) values. Cmax and trough accumulation ratios were calculated by dividing each patient’s treatment day concentration by their initial available drug concentration—day 1 for Cmax and day 8 for trough. Statistical differences among groups were identified by analysis of variance using Statistica version 13.1 (TIBCO Software Inc., Palo Alto, California); P < .05 was considered statistically significant

[3] = cited from earlier work
mTOR = settings: cited from earlier work

Structure (SMILES): Nc1cc(C(F)(F)F)c(-c2nc(N3CCOCC3)nc(N3CCOCC3)n2)cn1 [Bimiralisib, 5-(4,6-dimorpholino-1,3,5-triazin-2-yl)-4-(trifluoromethyl)pyridin-2-amine]
- Change of pathway targets in tumor tissue [1]: marked decreases
- Inhibition of PI3Kα (PI3Kα): potently inhibits
- Inhibition of other protein kinases (other protein kinases): does not significantly inhibit
- Duration of partial response (NOTCH1-mutant HNSCC): 9 months
- Cmax ([2]; oral, 140-mg dose, current study, read-out: Maximum Cmax value): 970 ng/mL
- Cmax ([2]; po, median, Day 1 (n = 6), 1 hour after 140 mg oral dose, read-out: C max): 574 ng/mL
- Cmax ([2]; po, median, Day 8 (n = 6), 1 hour after oral dose, read-out: C max): 574 ng/mL
- Cmax ([2]; po, median, Day 22 (n = 5), 1 hour after oral dose, read-out: C max): 691 ng/mL
- Cmax ([2]; po, median, Day 43 (n = 4), 1 hour after oral dose, read-out: C max): 526 ng/mL
- Cmax ([2]; po, median, Day 64 (n = 5), 1 hour after oral dose, read-out: C max): 546 ng/mL
- Cmax accumulation ([2]; intermittent dosing regimen): not observed
- Trough ([2]; median, Day 8 (n = 6)): 62 ng/mL
- C max accumulation ratio ([2]; median, Day 8 vs day 1): 0.78
- Trough ([2]; median, Day 22 (n = 5)): 101 ng/mL
- C max accumulation ratio ([2]; median, Day 22 vs day 1): 1.18
- Trough accumulation ratio ([2]; median, Day 22 vs day 8): 1.11
- Trough ([2]; median, Day 43 (n = 4)): 11.6 ng/mL
- C max accumulation ratio ([2]; median, Day 43 vs day 1): 0.82
- Trough accumulation ratio ([2]; median, Day 43 vs day 8): 0.94
- Trough ([2]; median, Day 64 (n = 5)): 139 ng/mL
- C max accumulation ratio ([2]; median, Day 64 vs day 1): 0.94
- Trough accumulation ratio ([2]; median, Day 64 vs day 8): 0.63
- Time of maximum plasma concentration, latest ([3]; after oral administration): ≤ 24 h
- Highest Cmax ([3]; dose of 150 mg, ref 11 (Wicki et al)): 998 ng/mL
- Terminal half-life ([3]; in vivo): 40 h
- Time of maximum plasma concentration after a dose ([3]; most humans, oral): 1 to 2 h
- Inhibition of mTOR (mTOR): potently inhibits
